Source: PubChem BioAssay AID1963830 (Molecular Pharmacology Branch, DTP, NCI, 2024)

System: 922993-354-T-J3-PDC complex spheroid viability
Assay: Anticancer human tumor 922993-354-T-J3-PDC patient-derived endometrial carcinoma cell line growth inhibition [POLQ]
Settings: for IC50: curve of first compound; for viability, T/C: stronger effect = lower value
Procedure, shortened: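 Complex spheroid viability model combining PDC tumour cells with endothelial (HUVEC) and MSC stromal cells. Novobiocin, ART-558 or RP6685 were tested singly and in combination with standard and investigational anticancer drugs. Each was titrated in half-log steps from near clinical Cmax, or from 10 microM where Cmax was unknown.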

[1] = second compound 0.0316 µM, first compound 0.0316 µM
[2] = second compound 0.0316 µM, first compound 0.1 µM
[3] = second compound 0.0316 µM, first compound 0.316 µM
[4] = second compound 0.0316 µM, first compound 1 µM
[5] = second compound 0.0316 µM, first compound 3.16 µM
[6] = second compound 0.0316 µM, first compound 10 µM
[7] = second compound 0.1 µM, first compound 0.0316 µM
[8] = second compound 0.1 µM, first compound 0.1 µM
[9] = second compound 0.1 µM, first compound 0.316 µM
[10] = second compound 0.1 µM, first compound 1 µM
[11] = second compound 0.1 µM, first compound 3.16 µM
[12] = second compound 0.1 µM, first compound 10 µM
[13] = second compound 0.316 µM, first compound 0.0316 µM
[14] = second compound 0.316 µM, first compound 0.1 µM
[15] = second compound 0.316 µM, first compound 0.316 µM
[16] = second compound 0.316 µM, first compound 1 µM
[17] = second compound 0.316 µM, first compound 3.16 µM
[18] = second compound 0.316 µM, first compound 10 µM
[19] = second compound 1 µM, first compound 0.0316 µM
[20] = second compound 1 µM, first compound 0.1 µM
[21] = second compound 1 µM, first compound 0.316 µM
[22] = second compound 1 µM, first compound 1 µM
[23] = second compound 1 µM, first compound 3.16 µM
[24] = second compound 1 µM, first compound 10 µM
[25] = second compound 3.16 µM, first compound 0.0316 µM
[26] = second compound 3.16 µM, first compound 0.1 µM
[27] = second compound 3.16 µM, first compound 0.316 µM
[28] = second compound 3.16 µM, first compound 1 µM
[29] = second compound 3.16 µM, first compound 3.16 µM
[30] = second compound 3.16 µM, first compound 10 µM
[31] = second compound 10 µM, first compound 0.0316 µM
[32] = second compound 10 µM, first compound 0.1 µM
[33] = second compound 10 µM, first compound 0.316 µM
[34] = second compound 10 µM, first compound 1 µM
[35] = second compound 10 µM, first compound 3.16 µM
[36] = second compound 10 µM, first compound 10 µM
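Also: spheroids exposed to the agents for one week.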
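For viability, T/C in this document: 100% = DMSO vehicle control wells.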

SMILES: C=CC(=O)N1CCN(c2nc(=O)n(-c3c(C)ccnc3C(C)C)c3nc(-c4c(O)cccc4F)c(F)cc23)C(C)C1 (stereo unspecified) + COC1C(OC(N)=O)C(O)C(Oc2ccc3c(O)c(NC(=O)c4ccc(O)c(CC=C(C)C)c4)c(=O)oc3c2C)OC1(C)C
- IC50 (second compound 0.0316 µM): > 10 µM
- IC50 (second compound 0.1 µM): > 10 µM
- IC50 (second compound 0.316 µM): > 10 µM
- IC50 (second compound 1 µM): > 10 µM
- IC50 (second compound 3.16 µM): > 10 µM
- IC50 (second compound 10 µM): > 10 µM
- viability, T/C [1]: 102%
- viability, T/C [2]: 94.8%
- viability, T/C [3]: 98.9%
- viability, T/C [4]: 101%
- viability, T/C [5]: 92.8%
- viability, T/C [6]: 84.1%
- viability, T/C [7]: 98.9%
- viability, T/C [8]: 107%
- viability, T/C [9]: 93.3%
- viability, T/C [10]: 91.4%
- viability, T/C [11]: 88.3%
- viability, T/C [12]: 97.6%
- viability, T/C [13]: 102%
- viability, T/C [14]: 101%
- viability, T/C [15]: 103%
- viability, T/C [16]: 96.5%
- viability, T/C [17]: 96.2%
- viability, T/C [18]: 99.6%
- viability, T/C [19]: 101%
- viability, T/C [20]: 97.5%
- viability, T/C [21]: 97.4%
- viability, T/C [22]: 98.6%
- viability, T/C [23]: 93%
- viability, T/C [24]: 104%
- viability, T/C [25]: 102%
- viability, T/C [26]: 94.2%
- viability, T/C [27]: 95.9%
- viability, T/C [28]: 92%
- viability, T/C [29]: 97.4%
- viability, T/C [30]: 101%
- viability, T/C [31]: 85.8%
- viability, T/C [32]: 88.4%
- viability, T/C [33]: 89.8%
- viability, T/C [34]: 85.9%
- viability, T/C [35]: 88.3%
- viability, T/C [36]: 85%

SMILES: CC(C)n1c(=O)n(C)c2cnc3cc(F)c(-c4ccc(OCCCN5CCCCC5)nc4)cc3c21 + COC1C(OC(N)=O)C(O)C(Oc2ccc3c(O)c(NC(=O)c4ccc(O)c(CC=C(C)C)c4)c(=O)oc3c2C)OC1(C)C
- IC50 (second compound 0.0316 µM): > 10 µM
- IC50 (second compound 0.1 µM): > 10 µM
- IC50 (second compound 0.316 µM): > 10 µM
- IC50 (second compound 1 µM): > 10 µM
- IC50 (second compound 3.16 µM): > 10 µM
- IC50 (second compound 10 µM): > 10 µM
- viability, T/C [1]: 111%
- viability, T/C [2]: 90.8%
- viability, T/C [3]: 104%
- viability, T/C [4]: 94.8%
- viability, T/C [5]: 84.2%
- viability, T/C [6]: 59%
- viability, T/C [7]: 103%
- viability, T/C [8]: 97.2%
- viability, T/C [9]: 104%
- viability, T/C [10]: 91.9%
- viability, T/C [11]: 83.3%
- viability, T/C [12]: 63.7%
- viability, T/C [13]: 99.2%
- viability, T/C [14]: 104%
- viability, T/C [15]: 94.1%
- viability, T/C [16]: 93.5%
- viability, T/C [17]: 84.3%
- viability, T/C [18]: 66.5%
- viability, T/C [19]: 88.9%
- viability, T/C [20]: 98.3%
- viability, T/C [21]: 100%
- viability, T/C [22]: 91.9%
- viability, T/C [23]: 86.9%
- viability, T/C [24]: 70.3%
- viability, T/C [25]: 95.9%
- viability, T/C [26]: 104%
- viability, T/C [27]: 85.5%
- viability, T/C [28]: 86.2%
- viability, T/C [29]: 85.1%
- viability, T/C [30]: 56.7%
- viability, T/C [31]: 81%
- viability, T/C [32]: 77.1%
- viability, T/C [33]: 89.6%
- viability, T/C [34]: 74.1%
- viability, T/C [35]: 70.2%
- viability, T/C [36]: 63%

SMILES: CC1COCCN1c1cc(-c2ccnn2C)c2ccnc(-c3ccn[nH]3)c2n1 (stereo unspecified) + COC1C(OC(N)=O)C(O)C(Oc2ccc3c(O)c(NC(=O)c4ccc(O)c(CC=C(C)C)c4)c(=O)oc3c2C)OC1(C)C
- IC50 (second compound 0.0316 µM): 0.121 µM
- IC50 (second compound 0.1 µM): 0.185 µM
- IC50 (second compound 0.316 µM): 0.172 µM
- IC50 (second compound 1 µM): 0.152 µM
- IC50 (second compound 3.16 µM): 0.143 µM
- IC50 (second compound 10 µM): 0.117 µM
- viability, T/C [1]: 83.5%
- viability, T/C [2]: 54.2%
- viability, T/C [3]: 27.8%
- viability, T/C [4]: 11.2%
- viability, T/C [5]: 10.4%
- viability, T/C [6]: 11.8%
- viability, T/C [7]: 94.4%
- viability, T/C [8]: 69.9%
- viability, T/C [9]: 33.7%
- viability, T/C [10]: 9.37%
- viability, T/C [11]: 8.43%
- viability, T/C [12]: 10.4%
- viability, T/C [13]: 95.1%
- viability, T/C [14]: 68.4%
- viability, T/C [15]: 29.5%
- viability, T/C [16]: 12.7%
- viability, T/C [17]: 9.09%
- viability, T/C [18]: 11.2%
- viability, T/C [19]: 78.6%
- viability, T/C [20]: 55.4%
- viability, T/C [21]: 39.7%
- viability, T/C [22]: 10.2%
- viability, T/C [23]: 8.85%
- viability, T/C [24]: 10.6%
- viability, T/C [25]: 89.9%
- viability, T/C [26]: 60%
- viability, T/C [27]: 27.9%
- viability, T/C [28]: 9.41%
- viability, T/C [29]: 7.96%
- viability, T/C [30]: 11.8%
- viability, T/C [31]: 82%
- viability, T/C [32]: 53.3%
- viability, T/C [33]: 26.8%
- viability, T/C [34]: 8.03%
- viability, T/C [35]: 9.82%
- viability, T/C [36]: 10.7%
